Values joined by “and” are separate entries in the source; they are usually repeats but may differ in a detail not shown here. Equal entries are not always repeated. Where two headings read alike, the source gives them in different places.
Legend:
[1] = tested on: spleen lymphocytes of BALB/C mice; conditions: 4 days
Method: The purpose of this assay is to challenge lymphocytes in microcultures with one or more polyclonal mitogens at concentrations that will induce mitogenesis within 72 hours of stimulation.
In the mouse model, spleens are removed from different strains of mice and the spleen cells are teased free and suspended in RPMI-1640 tissue culture medium at a concentration of usually 1×10^7 ml. These cells are dispensed at a concentration of 5.0×10^5 cells per microculture well in a 96 well flat bottom 96 well tissue culture plate. All testing of the compounds of this invention or mitogens are done in replicates of 10. The cells are then treated with PHA, Con-A, specific antigens, or buffer only. If in vitro testing is done, varying concentrations of the compounds of this invention or buffer only are added to the cells as well. After treatment with the mitogens and/or compounds of this invention, the cells are incubated for 72 hours. The response of these cells to mitogens and/or the compounds of this invention is assessed using ^14 C-thymidine labeling on the fourth day at a concentration of 0.01 μCi/well. The labeled cells are harvested using a lymphocyte harvestor and placed onto fibrous paper discs. […] The data is expressed as a ratio of the cpm of the mitogen stimulated group to the control (non-mitogen) treated group=lymphocyte stimulation index (LSI). […]

L5178Y tumor cells = conditions: 100 mg/kg i.p., 7 days
Method: (§1) Ten days later the resultant tumor nodule, about 1 cm in size, is surgically excised. If the excision was successful, no subcutaneous tumors develop at the site of implantation. […] These mice are considered to be in the tumor dormant state.
(§2) The effect of Cpd. 1 on the emergence from the L5178Y tumor dormant state is studied by treating forty DBA/2 mice with Cpd. 1 after the mice have undergone the TDS inducing procedure. […] 1 at 100 mg/kg and the remaining twenty mice receive buffer only. A partial peritoneal lavage is performed twenty-five days after the last dose of Cpd. 1 and the peritoneal exudate fluid is plated out for determination of tumor cell numbers (tumor cell quantitative assay). Survival time is recorded out to 90 days after challenge with the viable L5178Y tumor cells. The percent mortality is calculated for each group.
(§3) The effect of Cpd. 1 on the emergence from the L5178Y tumor dormant state was studied by treating forty DBA/2 mice with Cpd. 1 after the mice had undergone the TDS inducing procedure. Two days after the mice were challenged with i.p. administration of 50,000 viable L5178Y tumor cells, twenty of these mice received seven consecutive days of i.p. treatment with Cpd. 1 at 100 mg/kg and the remaining twenty mice received buffer only. A partial peritoneal lavage was performed twenty-five days after the last dose of Cpd. 1 and the peritoneal exudate fluid was plated out for determination of tumor cell numbers (tumor cell quantitative assay). Survival time was recorded out to 114 days after challenge with the viable L5178Y tumor cells. The percent mortality was calculated for each group.

L5178Y tumor = conditions: 100 mg/kg i.p., 7 days
Method: as §1, §2, §3

L-1210 leukemia = assay: Anti-cancer study, L-1210 leukemia in BDF1 mice; assay type: in vivo, mouse; conditions: seven days
Description: Mice of the BDF1 strain are given an i.p. inoculation of 10^6 L-1210 leukemia cells on day 0. Twenty-four hours later, groups of 7 mice each are started on a […] treatment regimen of various doses of the compounds of this invention. The experiment is continued according to the guidelines provided under the National Cancer Institute protocol for screening new anti-cancer agents and T/C ratios (median or mean survival time of treated groups over median or mean survival time of controls) are calculated. A T/C value ≥1.25 (or 125%) is considered significant anticancer activity.
Mice of the BDF1 strain, inoculated with L-1210 leukemia cells, are treated for seven days with either 25, 50, 100, 200 or 400 mg/kg of Cpd. 1 or just buffer. The National Cancer Institute protocol for screening new anti-cancer agents is followed and T/C ratios are calculated.
Mice of the BDF1 strain, inoculated with L-1210 leukemia cells, are treated for seven days with either 100 mg/kg of Cpd. 1, 20 mg/kg of 5-fluorouracil (5-FU), a known anti-cancer agent, or just buffer. The National Cancer Institute protocol for screening new anti-cancer agents is followed and T/C ratios are calculated.

In the case of Cc1ccc(C2(O)C(=O)OC3C(O)COC32O)o1.Cc1ccc(C2(O)C(=O)OC3C(O)COC32O)o1.O=C1CCC(=O)O1 (stereo not shown) [Cpd. 1], the “DNA synthesis of spleen cell lymphocytes” value ([1]; 400 mg/kg, compared to 200 mg/kg) is reported as “suppress DNA synthesis”, the “lymphocyte DNA synthesis, PHA and Con-A” value ([1]; 50, 100 and 200 mg/kg i.p.) is reported as “tend to stimulate lymphocyte DNA synthesis” and the “numbers of tumor cells recovered versus controls” value (L5178Y tumor cells) is reported as “significant reduction in the numbers of tumor cells”. The “Frequency of mice, Treated Group” value (L5178Y tumor cells; 1,000 to 100,000 tumor cells) was 7 and 4, the “% of Total, Treated Group” value (L5178Y tumor cells; >100,000 tumor cells) was 6% and 4.3% and the “Frequency of mice, Treated Group” value (L5178Y tumor cells; >100,000 tumor cells) was 1. For the same molecule, the “survival versus untreated controls” value (L5178Y tumor) was “significantly greater survival”, the “% Survival” value (L5178Y tumor; 90 days post-challenge) was 55.6% and the “No. Survivors” value (L5178Y tumor; 90 days post-challenge) was 10. For the same molecule, the “% Survival” value (L5178Y tumor; 114 days post-challenge) was 82.6%, the “No. Survivors” value (L5178Y tumor; 114 days post-challenge) was 19 and the “Median Survival Time” value (L-1210 leukemia; 25 mg/kg) was 20 days. For the same molecule, the “Median Survival Time” value (L-1210 leukemia; 50 mg/kg) was 21 days, the “Median Survival Time” value (L-1210 leukemia; 100 mg/kg) was 30 days and the “Median Survival Time” value (L-1210 leukemia; 200 mg/kg) was 30 days. The “Median Survival Time” value (L-1210 leukemia; 400 mg/kg) was 25 days.

— patent US4620014A, “2-furylbutyrolactones and methods for using same” (priority 1983, dated 1986)
